Reference: ChEMBL document CHEMBL2074250, “Digoxin up-regulates MDR1 in human colon carcinoma Caco-2 cells” (Biochem Biophys Res Commun, 2002)

Target: ATP-dependent translocase ABCB1 (Homo sapiens, UniProt P08183)
Assay: TP_TRANSPORTER: RT-PCR in Caco-2 cells
Assay type: functional, cell-based

ATP-dependent translocase ABCB1, sequence (P08183 whole entry): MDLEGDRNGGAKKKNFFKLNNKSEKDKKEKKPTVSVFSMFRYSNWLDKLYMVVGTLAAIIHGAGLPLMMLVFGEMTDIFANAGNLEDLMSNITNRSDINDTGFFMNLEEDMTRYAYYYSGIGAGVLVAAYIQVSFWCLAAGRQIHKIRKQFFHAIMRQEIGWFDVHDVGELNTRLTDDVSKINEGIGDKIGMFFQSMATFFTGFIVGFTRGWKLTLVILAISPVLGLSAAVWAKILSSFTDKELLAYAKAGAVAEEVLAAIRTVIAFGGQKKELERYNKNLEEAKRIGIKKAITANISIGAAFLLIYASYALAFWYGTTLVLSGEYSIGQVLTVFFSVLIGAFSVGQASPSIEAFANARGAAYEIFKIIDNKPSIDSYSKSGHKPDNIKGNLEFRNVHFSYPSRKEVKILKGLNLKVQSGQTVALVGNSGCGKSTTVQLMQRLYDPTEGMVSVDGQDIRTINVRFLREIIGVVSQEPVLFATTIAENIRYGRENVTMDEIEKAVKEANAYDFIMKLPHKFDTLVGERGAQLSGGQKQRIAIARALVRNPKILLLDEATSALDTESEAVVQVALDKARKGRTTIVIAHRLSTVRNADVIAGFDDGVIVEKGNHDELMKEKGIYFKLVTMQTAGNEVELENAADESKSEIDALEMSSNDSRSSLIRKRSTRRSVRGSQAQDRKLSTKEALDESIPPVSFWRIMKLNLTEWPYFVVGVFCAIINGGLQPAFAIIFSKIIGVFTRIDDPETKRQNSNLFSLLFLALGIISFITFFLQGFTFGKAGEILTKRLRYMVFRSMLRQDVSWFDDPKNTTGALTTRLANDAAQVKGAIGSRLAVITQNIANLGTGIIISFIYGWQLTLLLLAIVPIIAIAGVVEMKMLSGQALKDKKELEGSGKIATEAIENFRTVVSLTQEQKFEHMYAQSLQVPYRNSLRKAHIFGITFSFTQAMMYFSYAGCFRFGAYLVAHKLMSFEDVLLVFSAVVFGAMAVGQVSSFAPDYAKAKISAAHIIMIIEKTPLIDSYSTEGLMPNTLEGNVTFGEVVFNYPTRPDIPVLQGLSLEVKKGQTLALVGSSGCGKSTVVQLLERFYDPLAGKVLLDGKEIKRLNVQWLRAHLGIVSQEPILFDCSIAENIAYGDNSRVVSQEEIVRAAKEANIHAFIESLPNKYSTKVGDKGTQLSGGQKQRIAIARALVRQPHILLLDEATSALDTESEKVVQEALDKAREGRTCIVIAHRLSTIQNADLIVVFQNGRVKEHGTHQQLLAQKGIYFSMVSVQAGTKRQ

In the case of C[C@H]1O[C@@H](O[C@H]2[C@@H](O)C[C@H](O[C@H]3[C@@H](O)C[C@H](O[C@H]4CC[C@@]5(C)[C@H](CC[C@@H]6[C@@H]5C[C@@H](O)[C@]5(C)[C@@H](C7=CC(=O)OC7)CC[C@]65O)C4)O[C@@H]3C)O[C@@H]2C)C[C@H](O)[C@@H]1O [DIGOXIN], the Activity is reported as “inducer [+]”.
